The results in this text go back to ChEMBL document CHEMBL1208699, “BACE-1 hydroxyethylamine inhibitors using novel edge-to-face interaction with Arg-296” (Bioorg Med Chem Lett, 2010).

As a reminder, the clearance is the rate of elimination divided by the concentration. Low readings indicate inefficient removal, high ones efficient removal. In general, half-life refers to the time needed for the level to fall by half in the phase considered.

Common to all, as to assay type: ADME, organism-based
Holding throughout (parameters): dose 1 mg/kg, route intravenous

Data set [1] is described as follows: Blood clearance in rat at 1 mg/kg, iv. Conditions: whole blood.
Data set [2] can be described thus: Half life in rat at 1 mg/kg, iv. Conditions: in vivo.
The nature of data set [3]: Volume of distribution at steady state in rat at 1 mg/kg, iv. Conditions: in vivo, read-out: Vdss.

`CS(=O)(=O)N(c1ccccc1)c1cc(C(=O)N[C@@H](Cc2ccccc2)[C@H](O)CNCc2cccc(C(F)(F)F)c2)cc(C2CCCC2)c1`: the clearance in data set [1] came to 76 mL/min/kg. Moreover, the half-life in data set [2] is 42 min. Further, in data set [3], the Vd is 9.3 L/kg.
